Data as given in ChEMBL document CHEMBL1201862, “PubChem BioAssay data set” (2004).
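Method: 48-hour compound exposure of cells in 96-well plates, five concentrations, linear interpolation of endpoints. At the GI50, growth is halved.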 Active and inactive are the calls of the source. Rule as the data show it: active = GI50 up to about 1.1 µM and inactive = higher.

Columns and labels:
Assay in all cases: NCI-60 cell line screen, 48 h
MDA-MB-435 = test system: MDA-MB-435
Malme-3M = test system: Malme-3M
EKVX = test system: EKVX
K562 = test system: K562
SN12C = test system: SN12C
OVCAR-3 = test system: OVCAR-3
786-0 = test system: 786-0
OVCAR-4 = test system: OVCAR-4
A549 = test system: A549
COLO 205 = test system: COLO 205
RXF 393 = test system: RXF 393
Hs-578T = test system: Hs-578T
T47D = test system: T47D
SK-MEL-5 = test system: SK-MEL-5
SK-MEL-2 = test system: SK-MEL-2
OVCAR-8 = test system: OVCAR-8
CAKI-1 = test system: CAKI-1
MDA-MB-231 = test system: MDA-MB-231
TK-10 = test system: TK-10

Measured: GI50

C=CCNC(=S)NC=C(C(N)=O)C(N)=O
inactive: MDA-MB-435 > 100 µM | Malme-3M > 100 µM | EKVX > 100 µM | K562 > 100 µM | SN12C > 100 µM | OVCAR-3 11.1 µM | 786-0 > 100 µM | OVCAR-4 > 100 µM | A549 > 100 µM | COLO 205 > 100 µM | RXF 393 > 100 µM | Hs-578T > 100 µM | T47D > 100 µM | SK-MEL-5 > 100 µM | SK-MEL-2 > 100 µM | OVCAR-8 > 100 µM | CAKI-1 > 100 µM | MDA-MB-231 > 100 µM

O=C(CN1CCOCC1)c1ccc2c(c1)oc(=O)n2CCN1CCOCC1
inactive: MDA-MB-435 > 100 µM | Malme-3M > 100 µM | EKVX > 100 µM | K562 > 100 µM | SN12C > 100 µM | OVCAR-3 > 100 µM | 786-0 > 100 µM | COLO 205 > 100 µM | RXF 393 > 100 µM | Hs-578T > 100 µM | SK-MEL-5 > 100 µM | SK-MEL-2 > 100 µM | OVCAR-8 > 100 µM | CAKI-1 > 100 µM | MDA-MB-231 > 100 µM

CCCCCCCCCCCCCCCC(=O)OCC1OC(N2C(=O)/C(=N\NC(N)=S)c3ccc([N+](=O)[O-])cc32)C(OC(C)=O)C1OC(C)=O (configuration not stated)
inactive: Malme-3M > 100 µM | EKVX 39.4 µM | K562 > 100 µM | SN12C > 100 µM | OVCAR-3 60.3 µM | 786-0 > 100 µM | OVCAR-4 > 100 µM | A549 56.2 µM | COLO 205 37.1 µM | RXF 393 > 100 µM | SK-MEL-5 97.5 µM | SK-MEL-2 > 100 µM | TK-10 > 100 µM | OVCAR-8 52.1 µM | CAKI-1 > 100 µM

CC1(C)C(=O)C(O)=CC2C1=CCC1C2(C)C(=O)CC2(C)C(C(C)(O)C(=O)CC(O)C(C)(C)O)C(O)CC12C (configuration not stated)
inactive: Malme-3M 3.54 µM | EKVX 10 µM | K562 4.66 µM | SN12C 4.98 µM | OVCAR-3 3.28 µM | 786-0 2.45 µM | OVCAR-4 2.82 µM | A549 3.04 µM | COLO 205 3.67 µM | RXF 393 2.56 µM | SK-MEL-5 2.84 µM | SK-MEL-2 2.61 µM | TK-10 2.54 µM | OVCAR-8 12.6 µM | CAKI-1 2.12 µM

CC(C)n1c(=O)c2nn3c(=O)n(C(C)C)c(=O)c3nn2c1=O
inactive: MDA-MB-435 > 100 µM | Malme-3M > 100 µM | EKVX > 100 µM | SN12C > 100 µM | OVCAR-3 > 100 µM | 786-0 > 100 µM | OVCAR-4 > 100 µM | A549 > 100 µM | COLO 205 > 100 µM | RXF 393 > 100 µM | Hs-578T > 100 µM | T47D > 100 µM | SK-MEL-5 > 100 µM | SK-MEL-2 > 100 µM | TK-10 > 100 µM | OVCAR-8 > 100 µM | CAKI-1 > 100 µM | MDA-MB-231 > 100 µM

COc1ccc(C2=C(OC(C)=O)c3cccn3-c3ccc(Cl)cc3S2)cc1
inactive: MDA-MB-435 2.22 µM | Malme-3M 6.58 µM | EKVX 6.67 µM | K562 2.4 µM | SN12C 3.74 µM | 786-0 3.85 µM | OVCAR-4 6.22 µM | A549 5.51 µM | COLO 205 5.66 µM | RXF 393 9.44 µM | T47D 5.37 µM | SK-MEL-5 4.93 µM | TK-10 > 10 µM | OVCAR-8 6.53 µM | CAKI-1 7.19 µM | MDA-MB-231 3.72 µM
